Experiment [1] concerns murine mesangial derived MES13 cells. Nature of the experiment: Protective effect against oxidized LDL-induced injury of murine mesangial cells (in vitro). The format is cell-based. To be noted: Mus musculus, MES13, 10 h, mean ± standard deviation, read-out: Cytoprotection rate (%). How it is done: For the purpose of evaluating in vitro cytoprotective effect of the compounds of the present invention on mesangial cells, a cytoprotective study was performed using murine mesangial derived MES13 cells (ATCC-CRL-1927) injured by oxidized LDL.
Oxidized LDL was prepared in the same manner as in Test example 1. Cell culture was carried out by plating 2.5×10^4 cells/250 μl/well on a 48-well plate using FBS-free medium (mixture of DME medium and F12 medium in a ratio of 3:1). Test compounds were dissolved or suspended in ethanol and added to the wells in an amount of 1.25 μl/well to a concentration of 1 or 10 μM in each well. After 16 hours or immediately after the addition of the compounds, oxidized LDL was added to cells in an amount of 25 μl/well to a concentration of 91 μg/ml and the cells were cultured for 10 hours after addition of the oxidized LDL. Then, 150 μl/well of the culture medium were collected and measured for the lactate dehydrogenase level (LDL: SIGMA DIAGNOSTICS) having leaked in the medium.
The magnitude of cytoprotective effect was expressed as the cytoprotection rate which was determined by calculating the data assuming that the magnitude in wells containing oxidized LDL is 0% and that the magnitude in containing saline is 100%.

Experiment [2] has as its system porcine kidney-derived LLC-PK1 cells. Nature of the experiment: Protective effect against oxidized LDL-induced injury of porcine kidney-derived LLC-PK1 cells (1). The format is cell-based. The settings on record: Sus scrofa, LLC-PK1, 6 h, mean ± standard deviation, read-out: Cytoprotection rate (%). How it is done:
For the purpose of evaluating in vitro cytoprotective effect of the compounds of the present invention, a cytoprotective study was performed using porcine kidney-derived LLC-PK1 cells (ATCC-CRL-13921) injured by oxidized low-density lipoprotein (oxidized LDL).
Oxidized LDL was prepared by incubating 1 mg/ml of rabbit LDL in PBS (-) in the presence of 10 μM CuSO4 at 37° C. for 24 hours. Cell culture was carried out by plating 1.25×10^4 cells/250 μl/well on a 48-well plate containing M199 medium containing 3% FBS. Test compounds were dissolved or suspended in ethanol and added to the wells in an amount of 1.25 μl/well to a concentration of 0.1, 1 or 10 μM in each well. After 16 hours or immediately after the addition of the compounds, oxidized LDL was added to the wells. Probucol, α-tocopherol and Trolox which is a water-soluble analogue of α-tocopherol were used as reference control compounds. Oxidized LDL was diluted twice with saline and then added to the wells in an amount of 62.5 μl/well to a concentration of 100 μg/ml and the cells were cultured for 6 hours after addition of the oxidized LDL. Then, 162.5 μl/well of the culture medium were collected and measured for the lactate dehydrogenase (LDH) level (LD-L: SIGNA DIAGNOSTICS) having leaked into the medium.
The magnitude of cytoprotective effect was expressed as the cytoprotection rate which was determined by calculating the data assuming that the magnitude in wells containing oxidized LDL is 0% and that the magnitude in wells containing saline is 100%.

Experiment [3] relates to ischemic acute renal failure model. Nature of the experiment: Ischemic acute renal failure model, renal ischemia 30 minutes (in vivo). Set-up: species or system rat (male SD rats). The settings on record: 200 mg/kg oral once a day. How it is done:
Effect of a compound of the present invention on an in vivo renal disease was studied using an ischemic acute renal failure model.
An ischemic acute renal failure model was prepared from in groups of 8 each rats (male SD rats, weight: 224-285 g) fed with high-fat diet. High-fat diet feeding was started by free access to high-fat diet (cholesterol level 1.25%) from 7 or 8 days prior to unilateral nephrectomy and left renal artery clamping. The test compound was administered as a solution in soybean oil via oral route (4 ml/kg). Control group was orally administered soybean oil alone. The administration of compound was started from 4 or 5 days before the ischemic treatment at a dose of 200 mg/kg once a day. After the ischemia treatment, the oral administration of the compound was continued at a frequency of once a day. The ischemic treatment was performed by removing the right kidney and clipping a renal artery of the left kidney for 30 or 60 minutes.
Renal functions after ischemic treatment were determined by using urine and blood samples daily collected. Urine volume and the creatinine level of serum and urine were evaluated to calculate creatinine clearance as an indication of renal functions. Influences of high-fat diet feeding were monitored by measuring serum cholesterol level.

Experiment [4] relates to puromycin-induced nephrosis model. Briefly: Puromycin-induced nephrosis (1), preadministration (in vivo). The settings on record: day 8; for Creatinine clearance: control 576 ± 148; for Creatinine: serum, control 0.93 ± 0.21. Also noted: species or system rat (male SD rats). How it is done:
Effect of the compound of the present invention on an in vivo renal disease was studied using a puromycin-induced nephrosis model.
A puromycin-induced renal failure model was prepared from rats in groups of 5-8 each (6 week-old male SD rats) fed with high-fat diet. High-fat diet feeding was started by free access to high-fat diet (cholesterol level 1.25%) from 7 days before puromycin treatment. Puromycin (puromycin aminonucleoside, SIGMA Chemical Co.) treatment was performed by intraperitoneal administration at a dose of 100 mg/kg. The test compound was administered as a solution in soybean oil via oral route (4 ml/kg). Control group was orally administered soybean oil alone. The administration of compound was started from 3 days before the puromycin treatment once a day. After the puromycin treatment, the oral administration of the compound was continued.
Renal functions were determined by using urine and blood samples collected on day 8 after the puromycin treatment. Volume of urine and the creatinine levels in serum and urine were evaluated to calculate creatinine clearance as an indication of renal functions.

The mark [5] stands for this setting: compound added 16 hours before adding oxidized LDL.
[6] abbreviates: compound added immediately before adding oxidized LDL.
The mark [7] stands for this setting: 20 mg/kg oral once a day from 3 days before puromycin.
[8] abbreviates: 200 mg/kg oral once a day from 3 days before puromycin, P < 0.05.

The structures appear in SMILES notation. Where two headings read alike, the source gives them in different places.

This note sets out measurements from patent US6133279A, “Therapeutic agents for renal diseases and organ preservatives” (Chugai Seiyaku Kabushiki Kaisha, priority 1996, dated 2000).

`CCCCCC1(CCCCC)Cc2c(cc(C(C)(C)C)c(O)c2C(C)(C)C)O1` [Example 36, 4,6-Di-t-butyl-2,2-di-n-pentyl-5-hydroxy-2,3-dihydrobenzofuran]: the inhibition at 1 µM worked out at 9.7 ± 1.8% in experiment [1] (setting [5]), 2.7 ± 0.7% in experiment [1] (setting [6]), 92.2 ± 3.7% in experiment [2] (setting [5]) and 0.6% in experiment [2] (setting [6]). Also, the inhibition at 10 µM in experiment [1] (setting [5]) came out at 43.5 ± 0.5%; in experiment [1] (setting [6]), 40 ± 3.5%; in experiment [2] (setting [5]) it was 97.7 ± 1.1%; in experiment [2] (setting [6]) it was 78.8 ± 3.6%. In addition, the inhibition at 0.1 µM is -1 ± 7.4% in experiment [2] (setting [5]) and -3.2 ± 1.1% in experiment [2] (setting [6]). The “Creatinine” value in experiment [3] (1 day after ischemia (30 minutes), control 1.73 ± 0.73, P < 0.05) was determined as 1.06 ± 0.24 mg/dL; in experiment [3] (2 days after ischemia (30 minutes), control 1.84 ± 1.40), 0.96 ± 0.23 mg/dL; in experiment [3] (3 days after ischemia (30 minutes), control 2.19 ± 2.34), 1.05 ± 0.26 mg/dL; in experiment [4] (setting [7]) it was 0.71 ± 0.14 mg/dL; in experiment [4] (setting [8]), 0.59 ± 0.23 mg/dL. Further, the “Creatinine clearance” value stood at 934 ± 253 mL/day in experiment [3] (1 day after ischemia (30 minutes), control 632 ± 167, P < 0.05); 1095 ± 325 mL/day in experiment [3] (2 days after ischemia (30 minutes), control 678 ± 277, P < 0.05); 724 ± 176 mL/day in experiment [4] (setting [7]); 1055 ± 482 mL/day in experiment [4] (setting [8]).
